# Assay results taken from patent US7276337B2, “Compositions and methods for visual ribonuclease detection assays” (Integrated DNA Technologies, Inc., priority 2000, dated 2007).
# Key:
# Ribonuclease T1 = molecular target: T1, Ribonuclease T1 (Aspergillus oryzae, UniProt P00651); experiment: Visual detection ribonuclease assay, cleavage of Substrate ODN by RNase T1; assay type: biochemical; set-up: key to Sensitivity of Substrate ODN to Ribonuclease T1, relative signal intensity: +++ = maximum intensity; ++ = moderate intensity; + = faint but above background; − = negative (identical to background); settings: visual inspection, UV excitation, Substrate 500 nM, 37° C. 60 minutes
# T1 sequence (P00651 27-130): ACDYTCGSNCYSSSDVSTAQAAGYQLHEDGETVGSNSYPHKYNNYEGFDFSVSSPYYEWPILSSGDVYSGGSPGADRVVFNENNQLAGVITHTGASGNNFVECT
# Experimental: (§1) Nuclease assays were conducted using the method of the invention with both visual and fluorometric detection methods. Substrates were individually mixed in 1× Assay Buffer at a concentration of 50 nM (50 pmoles oligonucleotide in 1 ml volume) for fluorometric detection or at a concentration of 500 nM (50 pmoles of oligonucleotide in 100 ul volume) for visual detection. Test nucleases were added to respective Assay Mixes beginning at 1 ul stock reagent and proceeding with a 1:10 serial dilution until undetectable. Reaction mixes were incubated at 37° C. for 60 minutes. Fluorometric detection was performed as outlined in Example 2. Visual detection was performed as outlined in Example 1.
# (§2) Table 7: Sensitivity of different Substrate ODNs to Ribonuclease T1. A series of Substrate ODNs were synthesized and tested for sensitivity to RNase T1 degradation. Stock enzyme was serial diluted to achieve final concentrations of 0.001 units/ml, 0.0001 units/ml, and 0.00001 units/ml as indicated. Reactions were examined for fluorescence emission by visual inspection using an ultraviolet (UV) light source for excitation. Results were scored as +++, ++, +, or − based on relative signal intensity.
# (§3) It is commonly accepted that fluorometry provides for high sensitivity. To be useful, the visual method must also offer high sensitivity. Assays were conducted using the method of the invention with visual detection. Substrate SEQ ID NO:30 was mixed in 1× Assay Buffer at a concentration of 500 nM (50 pmoles ODN in 100 ul volume) in thin-walled, UV transparent tubes. […] Dilutions of stock RNase A, RNase 1, and RNase T1 were made in water. Undiluted and diluted nuclease (1 ul) was added to respective 100 ul Assay Mixes resulting in final dilution factors of 10^−2, 10^−3, 10^−4, 10^−5, 10^−6, and 10^−7. Assays were incubated at room temperature for 10 minutes and visually examined for fluorescence emission with UV excitation. […] The experiment took about 30 minutes to perform, including 15 minutes to set-up serial dilutions, 10 minutes incubation, and 5 minutes to visualize and photograph. Thus the method of the invention allows for a rapid, simple, and convenient visual assay for the presence of ribonuclease activity.
# RNase A = molecular target: T2, RNase A (Bos taurus, UniProt P61823); experiment: Fluorometric detection nuclease assay, RNase A; assay type: biochemical, mammalian; settings: RNase A 0.33 ug/ml; Substrate 50 nM; 37° C. 1 hour; 490 nm excitation
# T2 sequence (P61823 27-150): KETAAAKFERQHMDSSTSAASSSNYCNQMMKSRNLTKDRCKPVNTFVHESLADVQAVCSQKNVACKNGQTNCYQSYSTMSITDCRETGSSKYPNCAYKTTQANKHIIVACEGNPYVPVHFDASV
# Experimental: (§4) Nuclease assays were conducted using the method of the invention. SEQ ID NO:2 and SEQ ID NO:3 oligonucleotides were individually mixed in 1× Assay Buffer at a concentration of 50 nM (150 pmoles oligonucleotide in 3 mls volume). […] Assays were set up directly in cuvettes as follows:
# (§5) Assay Mixes were incubated at 37° C. for 1 hour. Fluorescence emission spectra were measured using a PTI fluorometer with 490 nm excitation. Substrate SEQ ID NO:2 (having chimeric RNA-DNA composition) reacted with both DNase I (undesired) and RNase A (desired).
# Nuclease assays were conducted using the method of the invention. The Substrate (SEQ ID NO:30) was mixed in 1× Assay Buffer at a concentration of 50 nM (150 pmoles oligonucleotide in 3 mls volume). Test nucleases were added to respective Assay Mixes, including 1 ul of RNase A (1 ug), 1 ul of RNase 1 (100 units), or 1 ul of RNase T1 (1000 units). […] Assays were set up directly in cuvettes as follows:
# Assay Mixes were incubated at 37° C. for 1 hour. Assays were transferred to cuvettes and fluorescence emission at 520 nm was measured using a PTI fluorometer with 490 nm excitation. Substrate SEQ ID NO:30, a preferred Substrate of the invention, reacted with (i.e., detected) all three RNase enzymes, verifying that Substrate compositions of the invention are sensitive to a variety of RNase enzymes.
# Substrate SEQ ID NO:30 was mixed in 1× Assay Buffer at a concentration of 50 nM (150 pmoles oligonucleotide in 3 mls volume). RNase A was added at final concentrations of 10 ng/ml, 2 ng/ml, 1 ng/ml, and 0.4 ng/ml. […] Assay mixes were incubated at 37° C. in a cuvette directly in a PTI fluorometer. Fluorescence emission at 520 nm with 490 nm excitation was measured over time. At high nuclease concentrations, the reaction goes rapidly to completion. At lower nuclease concentrations, the reaction rate decreases but with longer incubation times an easily detectable signal is generated. Substrate concentration is fixed and input enzyme (i.e., the test sample) varies. Since the background is stable (monitored in the control reaction), use of extended incubation periods will increase the sensitivity of the assay.
# Assays were conducted using the method of the invention with fluorometric detection. Substrate SEQ ID NO:30 was mixed in 1× Assay Buffer at a concentration of 50 nM (50 pmoles ODN in 1.0 ml volume) in RNase-free disposable cuvettes. […] Dilutions of stock RNase A, RNase 1, and RNase T1 were made in water. Undiluted and diluted nuclease (1 ul) was added to respective 1.0 ml Assay Mixes resulting in final dilution factors of 10^−3, 10^−4, 10^−5, 10^−6, 10^−7, 10^−8, and 10^−9. Assays were incubated at 37° C. for 1 hour and examined for fluorescence emission at 520 nm using 490 nm excitation in a PTI fluorometer. Final enzyme concentration reported notes the lowest concentration tested that was reproducibly positive with a signal:noise ratio of at least 2:1.
# Ribonuclease A = molecular target: T3, Ribonuclease A (Bos taurus, UniProt P61823); experiment: Visual detection ribonuclease assay, cleavage of Substrate ODN by RNase A; assay type: biochemical, mammalian; set-up: key to Sensitivity of Substrate ODN to Ribonuclease A, relative signal intensity: +++ = maximum intensity; ++ = moderate intensity; + = faint but above background; − = negative (identical to background); settings: Substrate 500 nM; for Sensitivity of Substrate ODN to Ribonuclease A, relative signal intensity: visual inspection, UV excitation, 37° C. 60 minutes
# T3 sequence (P61823 27-150): T2 sequence (P61823 27-150)
# Experimental: Nuclease assays were conducted using the methods of the invention. SEQ ID NO:2 and SEQ ID NO:30 oligonucleotides were individually mixed in 1× Assay Buffer at a concentration of 500 nM (50 pmoles ODN in 100 ul volume) in thin-walled, UV transparent microtubes. RNase A (1 ul, diluted to 0;1 ug/ul) was added to the respective Assay Mixes. […] Assays were set up directly in microtubes as follows:
# Assay Mixes were incubated at room temperature for 10 minutes. Assays were visually examined for fluorescence emission directly in the assay tubes without further manipulation. Tubes were suspended above an ultraviolet light source, visually inspected, and photographed using a digital camera. […] The “positive” and “control” reactions appeared markedly different and were easily distinguished. […] The “positive” and “control” reactions were not markedly different to visual inspection.
# as §1
# as §2, with “6:” for “7:”, “A.” for “T1.”, “A” for “T1”, “1 ng/ml, 100 pg/ml,” for “0.001 units/ml, 0.0001 units/ml,”, “10 pg/ml” for “0.00001 units/ml”
# as §3
# DNase I = DNase I (Bos taurus, UniProt P00639); experiment: Fluorometric detection nuclease assay, DNase I (nuclease specificity); assay type: biochemical; settings: DNase I 2 units/ml; Substrate 50 nM; 37° C. 1 hour; 490 nm excitation
# Experimental: as §4, §5
# Chain of DNase I (P00639 23-282): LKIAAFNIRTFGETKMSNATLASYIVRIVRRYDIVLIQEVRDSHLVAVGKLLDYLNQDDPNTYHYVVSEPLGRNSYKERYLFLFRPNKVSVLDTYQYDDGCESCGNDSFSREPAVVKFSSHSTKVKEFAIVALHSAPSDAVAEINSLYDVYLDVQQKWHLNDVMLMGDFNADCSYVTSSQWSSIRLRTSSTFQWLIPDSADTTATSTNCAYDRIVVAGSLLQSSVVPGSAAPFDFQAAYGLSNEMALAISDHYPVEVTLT
Substance,"Sensitivity of Substrate ODN to Ribonuclease T1, relative signal intensity (Ribonuclease T1; RNase T1 10^−3 units/ml)","Sensitivity of Substrate ODN to Ribonuclease T1, relative signal intensity (Ribonuclease T1; RNase T1 10^−4 units/ml)","Sensitivity of Substrate ODN to Ribonuclease T1, relative signal intensity (Ribonuclease T1; RNase T1 10^−5 units/ml)",Reactivity with RNase A (fluorometer) (RNase A),"Sensitivity of Substrate ODN to Ribonuclease A, relative signal intensity (Ribonuclease A; RNase A 10 pg/ml)","Sensitivity of Substrate ODN to Ribonuclease A, relative signal intensity (Ribonuclease A; RNase A 100 pg/ml)","Sensitivity of Substrate ODN to Ribonuclease A, relative signal intensity (Ribonuclease A; RNase A 1 ng/ml)",Reactivity with DNase I (fluorescence emission spectra) (DNase I),"Fluorescence emission by visual inspection in the presence of RNase (Ribonuclease A; RNase A 1.0 ug/ml, room temperature 10 minutes, UV light source)","Fluorescence emission by visual inspection in the absence of RNase (control reaction) (Ribonuclease A; no nuclease, room temperature 10 minutes, UV light source)"
"5′ Fluorescein-AAuAA-Dabcyl 3′ (NAAUAAN; 5' fluorescein and 3' Dabcyl labels, nucleotide chemistry not given here) [SEQ ID NO:3]",−,−,−,retained reactivity,−,+,++,did not react,,
"5′ Fluorescein-AuAA-Tamra 3′ (NAUAAN; 5' fluorescein and 3' TAMRA labels, nucleotide chemistry not given here) [SEQ ID NO:2, reference compound]",,,,reacted,,,,reacted,changed somewhat in color and slightly increased in intensity,emitted light
